Data on six compounds can be found in patent EP2740727B1, “Quinazolinone analogues for use as anticonvulsant agents” (King Saud University, priority 2012, dated 2014).

Each structure is given as a SMILES string. Read-outs that look alike come from different tables or passages of the source.

A short description of data set [1]: in vivo. Conditions: mouse, ip.
Procedure: (§1) Median effective (ED50), and median sedative (TD50) were calculated.
Data set [2] concerns Albino Swiss mice. Put plainly: Acute toxicity determination (LD50). The conditions noted are these: Therapeutic index = LD50/ED50.
Procedure: (§2) The acute toxicity detenninatioii (LD50) for compounds of formula 1 was performed. Compounds were given intraperitoneally (i.p.) in doses ranging from 0.1-5 mmol/kg. […] All behavioral changes and death during the observation periods were recorded. […] The protective index (PI) and therapeutic index (TI) of each compound were calculated.
(§3) Initially the approximate LD50 of each test compound was determined. Albino Swiss mice (25 g body weight) were then divided into 4 groups (6 mice each). […] The animals were then observed closely for 4 hours and then occasionally for 72 hours. The percentage of death in each group was then calculated.
The subject of data set [3] is Pentylenetetrazole (PTZ)-induced convulsion. Put plainly: Pentylenetetrazole (PTZ) seizure threshold test. Type of data set: in vivo, Swiss albino mice. The conditions noted are these: for ED50: Mus musculus, ip, median effective dose, mice, log-probit method; for % Protection: PTZ 100 mg/kg i.p. 30 min later, 4 animals; for protection against PTZ-induced seizures: dose not given (tested 25, 50, 100 and 200 mg/kg i.p.). As for the experimental part:
Adult male Swiss […] mice (22-28 g), approximately 10-week old, were used to conduct the anticonvulsant evaluation. They were housed in cages and kept at a temperature of 20 ± 2°C and a relative humidity of 55 ± 5% with a light-dark cycle of 12 h and fed with standard diet and water ad libitum. […] A control group of mice was included and received intraperitoneal (i.p.) injections of the test compounds' vehicle. […] Picrotoxin (pic) was freshly dissolved in 1 ml 0.1N warmed HCl and the final volume was made up with 0.9% NaCl.
A single 5 seconds episode of clonic spasms was taken as a threshold seizure.
In each of the chemical and the electrical methods described above, Swiss albino mice were divided into 4 groups (N = 4 animals).

Data set [4] in a line: in vivo. The conditions noted are these: mouse, ip. The source holds these as a separate data set.
Procedure: as §2, §3
Another data set relates to motor performance. Put plainly: Minimal neurotoxicity (chimney test), motor performance. The conditions noted are these: Protective index = TD50/ED50.
Data set [5] relates to Albino Swiss mice. Conditions: mouse, in vivo, 72 h.
Procedure: as §2, §3

Procedure for motor performance: as §1

On to `COc1cc2nc(SCC(=O)NN)n(Cc3ccccc3)c(=O)c2cc1OC` [Compound 70, 2-(3-Benzyl-6,7-dimethoxy-4-oxo-3,4-dihydro-quinazolin-2-yl-thio)acetohydrazide], for which the TD50 in the data set “in vivo [1]” was determined as 149 mg/kg. Also, the TI with Albino Swiss mice [2] is listed as 11.25. In data set [3], the ED50 is 32 mg/kg and the “protection against PTZ-induced seizures” value is on record as 100%. In addition, in data set [3] (dose 50 mg/Kg i.p. [sic]), the “% Protection” value is recorded as 100%. In the data set “in vivo [4]” (Albino Swiss), this compound showed an LD50 at 72 h of 360 mg/kg. This compound displayed a PI in the data set on motor performance of 4.67.

In the data set “in vivo [1]”, `CCC(=O)NNC(=O)CSc1nc2ccc(Cl)cc2c(=O)n1-c1ccccc1` [Compound 89, N'-[2-(6-Chloro-4-oxo-3-phenyl-3,4-dihydro-quinazolin-2yl-thio)acetyl]propionohydrazide] displayed a TD50 of 100 mg/kg. This compound also had a TI in the data set with Albino Swiss mice [2] of 24.6. Further, in data set [3], the ED50 is 11.8 mg/kg and the “protection against PTZ-induced seizures” value was 100%. In data set [3] (dose 50 mg/Kg i.p. [sic]), the “% Protection” value is on record as 100%. In “in vivo [4]” (Albino Swiss), this compound had an LD50 at 72 h of 290 mg/kg. Also, the PI with motor performance is reported as 8.5.

In turn, `CC(=O)NNC(=O)CSc1nc2ccc(Cl)cc2c(=O)n1Cc1ccccc1` [Compound 105, N'-Acetyl-2-(3-benzyl-6-chloro-4-oxo-3,4-dihydro-quinazolin-2-yl-thio)acetohydrazide] registered a TD50 in “in vivo [1]” of 215 mg/kg. This compound showed a TI in the data set on Albino Swiss mice [2] of 9.7. In data set [3], the median effective dose (ED50) was 24.8 mg/kg and the “protection against PTZ-induced seizures” value amounted to 100%. The “% Protection” value in data set [3] (dose 150 mg/Kg i.p.) is reported as 100%. Moreover, the LD50 at 72 h in “in vivo [4]” (Albino Swiss) was 240 mg/kg. The PI in the data set on motor performance turned out to be 8.7.

For `CCC(=O)NNC(=O)CSc1nc2cc(OC)c(OC)cc2c(=O)n1Cc1ccccc1` [Compound 110, N'-(2-(3-Benzyl-6,7-dimethoxy-4-oxo-3,4-dihydro-quinazolin-2-yl-thio)acetyl)propionohydrazide], in the data set “in vivo [1]”, the TD50 worked out at 134 mg/kg. The same compound registered a TI in the data set with Albino Swiss mice [2] of 5.1. For the same compound, in data set [3], it took a dose of 32.7 mg/kg to reach the 50% effect level (ED50) and the “protection against PTZ-induced seizures” value is 100%. For the same compound, the “% Protection” value in data set [3] (dose 150 mg/Kg i.p.) is 100%. Further, in the data set “in vivo [4]” (Albino Swiss), the 50% lethal dose (LD50) at 72 h stood at 168 mg/kg. The PI in the data set with motor performance is reported as 4.1.

In the data set “in vivo [1]”, `O=C(CCc1ccccc1)NNC(=O)CSc1nc2ccc(Cl)cc2c(=O)n1Cc1ccccc1` [Compound 115, N'-(2-(3-Benzyl-6-chloro-4-oxo-3,4-dihydro-quinazolin-2-yl-thio)acetyl)-3-phenylpropanehydrazide] registered a TD50 of 136 mg/kg. Further, in the data set on Albino Swiss mice [2], the TI is given as 9.8. Also, in data set [3], the 50% effect level (ED50) was put at a dose of 29.5 mg/kg and the “protection against PTZ-induced seizures” value turned out to be 100%. Also, in data set [3] (dose 150 mg/Kg i.p.), the “% Protection” value was found to be 100%. This compound also showed an LD50 at 72 h in “in vivo [4]” (Albino Swiss) of 290 mg/kg. Also, the PI in the data set on motor performance amounted to 4.6.

Turning to `CCCC(CCC)C(=O)[O-].[Na+]` [Sodium Valproate, Sodium valproate, reference compound], in “in vivo [1]”, the TD50 turned out to be 470 mg/kg. Besides, in data set [3], the ED50 amounted to 189 mg/kg. Also, the “% Protection” value in data set [3] (dose 50 mg/Kg i.p. [sic]) was 100%. Besides, the TI in the data set with Albino Swiss mice [5] is 5.2. This compound also yielded an LD50 at 72 h in the data set “in vivo [4]” of 985 mg/kg.

As usually defined, the ED50 is the dose that gives a 50% effect, or the effect in half of the subjects. Broadly, the LD50 is the dose at which mortality reaches 50%. A low value points to a more toxic substance.
